Laboratory results taken from patent US5686424A, “2-oxoethyl derivatives as immunosuppressants” (Miles Inc., priority 1995, dated 1997).
Where a name gives a salt, the structure may show the parent alone. Read-outs that look alike come from different tables or passages of the source.

Columns and labels:
FKBP = FKBP (Homo sapiens, UniProt P62942); test: PPIase Inhibition Assay; assay type: biochemical
Experimental: 1) Inhibition of PPIase Activity
This assay follows in principle the procedure described in Kofron et al., 1991, Biochemistry 30:6127.
The three main reagents used are PPIase, a substrate for PPIase, and a selected inhibitor compound of the present invention. The basic principle behind this assay is the conversion of the cis isomer of the substrate to the trans form, which conversion is catalyzed by PPIase. Essentially, inhibition of this PPIase activity is measured for the selected compounds. A peptide chymotrypsin substrate containing a proline in the P2 position is only cleaved by chymotrypsin when the Phe-Pro bond is in the trans isomeric configuration. In the presence of excess chymotrypsin, all of the trans peptide isomers are cleaved within approximately five seconds, leaving only cis forms.
The cis peptide will spontaneously convert to the trans isomer at a slow rate. The cis to trans conversion is catalyzed by isomerases at a much faster rate than this spontaneous conversion. Proteins with PPIase activity are examples of such isomerases. After isomerization, the peptide is cleaved by chymotrypsin releasing p-nitroaniline which can be monitored at 390 nm. The rate of release is then calculated using a first order rate plus offset equation utilizing the ENZFITTER program (Leatherbarrow, BIOSOFT, Cambridge, United Kingdom).
In a plastic cuvette are added 950 ul of ice cold assay buffer (25 mM HEPES, pH 7.8, 100 mM NaCl), 10 uL of FKBP (2.5 uM in 10 mM Tris-Cl pH 7.5, 100 mM NaCl, 1 mM dithiothreitol), 25 ul of chymotrypsin (50 mg/ml in 1 mM HCl) and 10 ul of the test compound at various concentrations in dimethyl sulphoxide. The reaction is initiated by addition of 5 ul of substrate (Succinyl-Ala-Phe-Pro-Phe-para-nitroanilide, 5 mg/ml in 235 mM LiCl in trifluoroethanol).
The absorbance at 390 nm versus time is monitored for 90 sec using a Beckman DU70 spectrophotometer. The absorbance versus time data files are transferred to an IBM XT computer and the rate constants determined using the commercial enzfitter program. For each set of data, the uncatalyzed rate of conversion is measured and the uninhibited enzymatic rate determined. The data are expressed as % Activity remaining and are calculated as follows:
% Activity Remaining=(kobs -kuncat)/(kuninh
where kobs is the rate in the presence of a selected test compound, kuncat is the rate in the absence of enzyme, and kuninh is the rate in the presence of enzyme
Data was plotted as the velocity in the absence of the inhibitor (V-) divided by the velocity in the presence of inhibitor (V+) versus the inhibitor concentration. The IC50 can be determined following linear regression as the inhibitor concentration where

NF-AT = NF-AT Inhibition Assay Directed β-Galactosidase Expression in FGL-5 cells; assay type: cell-based
Experimental: 3) NF-AT Assay Stimulation of T-cells leads to the appearance of several transcription factors, including one designated "NF-AT". These factors are involved in regulation of gene expression required for immunologic activation. Some of these transcription factors appear to have functions in a wide variety of cell types. By contrast, NF-AT is found primarily in T-cells and its role is restricted to early gene activation. […] Inhibition of NF-AT activity is measured using FGL-5 cells. FGL-5 is a cloned line of stably transfected Jurkat T-cells that contain two construct in which three tandem copies of the NF-AT DNA binding site direct transcription of both murine CD8 and the lacZ gene, encoding β-galactosidase ([…] et al., 1990, Genes & Development 4:1823). When these cells are stimulated with phorbol esters which activate protein kinase C and calcium ionophore to raise the intracellular calcium concentration, transcriptionally active NF-AT is produced. In T-cells, this normally leads to the expression of IL-2, T-cell growth factor. However, in FGL-5 cells NF-AT activation leads to the production of β-galactosidase which can be detected using an appropriate substrate. […] NF-AT Inhibition Assay Directed β-Galactosidase Expression This assay was performed essentially as described (Bierer et al., 1990, Proc. Natl. Acad. Sci. 87:9231). […] The assays were done with exponentially growing cells whose density was not greater than 0.5 million cells/ml. The cells were resuspended to 3 million cells/ml in medium and 0.1 ml was added to wells of a 96-well plate. The compounds of the present invention were dissolved in either ethanol or dimethylsulfoxide at 10 mM and […] of various dilutions in medium were added to cells in duplicate wells. Treatment controls consisted of duplicate wells containing 0.5 ml/well of either medium, ethanol or dimethylsulfoxide. The ethanol and dimethyl sulfoxide were at the same concentration as was used for the compounds. […] Phorbol dibutyrate (Sigma) and Ionomycin (Calbiochem) were dissolved at 50 μg/ml and 2 mM, respectively and stored at -70° C. […] For unstimulated cell controls, 0.5 ml/well of medium was added to duplicate wells. The plates were incubated overnight (16-18 hours) at 37° C. in a humidified atmosphere of 5% CO2 and air. β-galactosidase activity was measured as the fluorescence generated by the cleavage of 4-methyl umbelliferyl-β-D-galactoside (Sigma) at the β-galactoside bond. After overnight incubation, the cells were centrifuged at 500×g for 3 minutes in the 96-well plates and washed 3 times with PBS. […] The percent inhibition by each concentration of the compounds was calculated as: […]

human T-cells = test: Suppression of Human T-Cell Proliferation Assay (PHA-stimulated, [3H]-thymidine incorporation); assay type: cell-based; details: read-out: IC50
Description: 2) Human T Lymphocyte Inhibition
Inhibition of mitogen-induced T-cell proliferation can be used to profile immunosuppressive activity of test compounds. In the description of the assay which follows, mitogen-induced T-cell activation was used to test the inhibitory potencies of select compounds of the present invention.
In an assay similar to that described by Bradley in Mishell et al. (Eds.), 1980, Selected Methods in Cellular Immunology, pp 156-161, W. H. Freeman & Co., San Fransisco, Calif., T-cells were stimulated by incubation with phytohemagglutinin (PHA) which binds to cell surface molecules, including the T-cell receptor. This stimulation results in proliferation which can be measured by incorporation of [^3 H]-thymidine into cellular DNA.
The immunosuppressive properties of the compounds of the present invention can be determined by adding various concentrations of the compounds to these cultures and measuring the effect on T-cell proliferation.
Suppression of Human T-Cell Proliferation Assay
Fresh LeukoPaks were obtained from the New York Blood Center, New York, N.Y. The cells, including erythrocytes and leukocytes, were diluted with Hank's Balanced Salt Solution (HBSS) (GIBCO, Grand Island, N.Y.) and layered over Lymphoprep (Nycomed Pharma AS, Oslo, Norway) in sterile 50 ml conical centrifuge tubes. Lymphocytes were isolated at the Hank's/Nycomed interface after centrifugation at 2000×g, 4° C. for 15 min. The lymphocytes were washed with Minimal Essential Medium (GIBCO) containing 2% fetal bovine serum (FBS) (Sigma Chemical Co., St. Louis, Mo.), 1% HEPES buffer (GIBCO) and 1% Penicillin-Stretomycin solution (GIBCO).
T-cells were further purified essentially by sheep erythrocyte (SRBC) rosetting as described by Morimoto et al., 1983, J. Immunol. 130:157. The isolated lymphocytes were adjusted to 2×10^7 cells/ml and 5 ml aliquots of the cell suspension were incubated for 10 minutes at room temperature with 5 ml of a 5% SRBC (Cappel, Organon Technika Corp., West Chester, Pa.) suspension. The cells were gently pelleted by centrifugation at 300 rpm for 10 minutes, followed by a 1 hour incubation at room temperature to allow rosette formation. The cells were gently resuspended,layered over Lymphoprep and centrifuged for 30 minutes at 500×g. The pellet, containing rosetted T-cells and SRBC was treated with ice cold buffered ammonium chloride (GIBCO) to lyse the erythrocytes. T-cells were washed twice with HBSS.
Purified T-cells were resuspended at 2×10^6 cells/ml in complete culture medium composed of RPMI-1640 (Whittaker Bioproducts, Walkerville, Md.) with 10% FBS (Sigma), 2 mM L-glutamine (GIBCO), 1% Penicillin-Streptomycin (GIBCO) and 15 mM HEPES (GIBCO). In 96-well plates (Becton Dickinson, Lincoln Park, N.J.), 0.1 ml aliquots of T-cell suspension were mixed with 0.05 ml of 40 μg/ml PHA-M (Sigma). The compounds of this invention were dissolved in dimethylsulfoxide at 10 mM and various dilutions in complete medium were added in duplicate wells (0.05 ml/well). The plates were incubated at 37° C. in a humidified atmosphere of 5% carbon dioxide and 95% air for 72 hours.
Proliferation was assessed by measurement of [^3 H]-thymidine incorporation. During the last 6 hours of incubation, the cells were pulse labelled with 1 μCi/well of [^3 H]-thymidine (New England Nuclear, Boston, Mass.). The cells were harvested onto glass fiber paper using a plate harvester and the radioactivity incorporated into cellular DNA corresponding to individual wells was measured by standard liquid scintillation counting methods.

[1] = concentration of inhibitor required for 50% inhibition of enzyme activity, FKBP, substrate Succinyl-Ala-Phe-Pro-Phe-para-nitroanilide, TABLE I
[2] = 50% inhibition of NF-AT directed β-galactosidase activity in FGL-5 cells stimulated with phorbol dibutyrate and ionomycin, TABLE 3
[3] = concentration inhibiting [3H]-thymidine incorporation of PHA-stimulated T-cells by 50%, 72 hours, TABLE 2

Chain of FKBP (P62942 whole entry): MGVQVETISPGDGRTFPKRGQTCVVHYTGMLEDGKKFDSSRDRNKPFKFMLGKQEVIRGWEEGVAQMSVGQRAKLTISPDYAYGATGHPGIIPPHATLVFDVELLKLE

CC[C@H](C)[C@H](NC(=O)[C@@H]1CCCN1CC(=O)c1ccc(Oc2ccccc2)cc1)C(=O)NCc1ccccc1 [Example 109, L-Isoleucine, N-[1-(2-(4-Phenoxyphenyl)-2-Oxoethyl)-L-Prolyl] Benzylamide]
IC50 (FKBP; [1]): < 5 µM | IC50 (NF-AT; [2]): > 15 µM | IC50 (human T-cells; [3]): 5 µM

COc1cc(C(=O)CN2CCC[C@H]2C(=O)NCCc2ccc(NC(C)=O)cc2)cc(OC)c1OC [Example 154, L-Proline, 1-[2-(3,4,5-Trimethoxyphenyl)-2-Oxoethyl] 2-(4-(N-Acetyl)aminophenyl)ethylamide]
IC50 (FKBP; [1]): > 5 µM | IC50 (NF-AT; [2]): > 15 µM | IC50 (human T-cells; [3]): 13 µM

COc1cc(C(=O)CN2CCC[C@H]2C(=O)NCCc2ccccc2)cc(OC)c1OC [Example 121, L-Proline, 1-[2-(3,4,5-Trimethoxyphenyl)-2-Oxoethyl] 2-Phenethylamide Hydrochloride]
IC50 (FKBP; [1]): > 5 µM | IC50 (NF-AT; [2]): > 15 µM | IC50 (human T-cells; [3]): 7 µM

CC[C@H](C)[C@H](NC(=O)[C@@H]1CCCN1CC(=O)C12CC3CC(CC(C3)C1)C2)C(=O)NCc1ccncc1 [Example 67, L-Isoleucine, N-[1-(2-Adamantan-1-yl-2-Oxoethyl)-L-Prolyl] Pyridin-4-ylmethylamide]
IC50 (FKBP; [1]): 0.71 µM | IC50 (NF-AT; [2]): > 100 µM | IC50 (human T-cells; [3]): 19 µM

COc1cc(C(=O)CN2CCC[C@H]2C(=O)NCC23CC4CC(CC(C4)C2)C3)cc(OC)c1OC [Example 139, L-Proline, 1-[2-(3,4,5-Trimethoxyphenyl)-2-Oxoethyl] Adamant-1-ylmethylamide Hydrochloride]
IC50 (FKBP; [1]): > 5 µM | IC50 (NF-AT; [2]): > 33 µM | IC50 (human T-cells; [3]): 4 µM

COc1cc(C(=O)CN2CCC[C@H]2C(=O)NCCc2ccccn2)cc(OC)c1OC [Example 124, L-Proline, 1-[2-(3,4,5-Trimethoxyphenyl)-2-Oxoethyl] 2-(Pyrid-2-yl)ethylamide Dihydrochloride]
IC50 (FKBP; [1]): > 5 µM | IC50 (NF-AT; [2]): > 15 µM | IC50 (human T-cells; [3]): > 15 µM

C=CCOC(=O)Nc1ccc(CCCOC(=O)[C@@H]2CCCCN2CC(=O)c2cc(OC)c(OC)c(OC)c2)cc1 [Example 159, L-Homoproline, 1-[2-(3,4,5-Trimethoxyphenyl)-2-Oxoethyl] 3-(4-(N-Carboallyloxy)aminophenyl)propyl Ester Hydrochloride]
IC50 (FKBP; [1]): > 5 µM | IC50 (NF-AT; [2]): 3 µM | IC50 (human T-cells; [3]): 10 µM

CC[C@H](C)[C@H](NC(=O)[C@@H]1CCCCN1CC(=O)c1cc(OC)c(OC)c(OC)c1)C(=O)NCc1ccccc1 [Example 153, L-Isoleucine, N-[1-(2-(3,4,5-Trimethoxyphenyl)-2-Oxoethyl)-L-Homoprolyl] Benzylamide]
IC50 (NF-AT; [2]): > 15 µM | IC50 (human T-cells; [3]): > 15 µM

L-Isoleuclne, N-[1-(2-(1-Methyl-Cyclohexyl)-2-Oxoethyl)-L-Prolyl] Benzylamide [Example 44]
IC50 (NF-AT): 24 µM | IC50 (human T-cells): 12 µM

CC[C@H](C)[C@H](NC(=O)[C@@H]1CCCN1CC(=O)O)C(=O)NCc1ccccc1 [Example 71, L-Isoleucine, N-[1-(Carboxymethyl)-L-Prolyl] Benzylamide]
IC50 (FKBP; [1]): > 5 µM | IC50 (human T-cells; [3]): > 50 µM

CC[C@H](C)[C@H](NC(=O)[C@@H]1CCCCN1CC(=O)OCc1ccccc1)C(=O)NCc1ccccc1 [Example 23]
IC50 (FKBP; [1]): < 50 µM | IC50 (human T-cells; [3]): 62 µM

CC[C@H](C)[C@H](NC(=O)[C@@H]1CCCN1CC(=O)c1sc2ccc(Cl)cc2c1C)C(=O)NCc1ccccc1 [Example 11, L-Isoleucine, N-[1-(2-(5-Chloro-3-Methyl-benzo[B]thiophene-2-yl)-2-Oxoethyl)-L-Prolyl] Benzylamide]
IC50 (FKBP; [1]): 50 µM | IC50 (human T-cells; [3]): 34 µM

CC[C@H](C)[C@H](NC(=O)[C@@H]1CCCN1CC(=O)c1ccc(-c2ccccc2)cc1)C(=O)NCc1ccccc1 [Example 9, L-Isoleucine, N-[1-(2-(Biphenyl-4-yl)-2-Oxoethyl)-L-Prolyl] Benzylamide]
IC50 (FKBP): < 50 µM | IC50 (human T-cells): 50 µM
